Assays:
TS [1] = target: T1, TS (Homo sapiens, UniProt P04818); test: TS enzyme inhibition assay; assay type: biochemical; design: His6 tag with TEV site (vector-encoded by pNIC28-Bsa4); made in house; host or cells: Rosetta BL21-DE3 Escherichia coli
Procedure: Enzymatic activity of recombinant human TS was measured spectrophotometrically at 340 nm by monitoring the absorbance change during the conversion of 5,10-methylenetetrahydrofolate to dihydrofolate using an Infinite M200 spectrometer (Tecan). Measurements were carried out at room temperature and in a buffer of 50 mM Tris at pH 7.5 and 150 mM NaCl. Initial velocities were measured with 250 nM of purified protein, 100 μM 5,10-methylenetetrahydrofolate and 100 μM dUMP in the presence of compounds using the same amount of DMSO as control. Initial rates and activity were analyzed with the software package Prism (GraphPad Software).
(§1) Decitabine at a concentration of 1 mM was incubated with 1 mg ml^−1 of recombinant DCK and 2.5 mM ATP in a buffer of 50 mM Tris at pH 7.5, 150 mM NaCl and 0.5 mM MgCl2 at room temperature for 60 min to generate the corresponding monophosphates. To probe for nucleotide deamination the samples were further treated with 1 mg ml^−1 of recombinant DCTD in the presence of 1 mM ATP and 10 μM ZnCl2 for 20 min at room temperature. After incubation, the samples were heated at 95 °C for 10 min and centrifuged for 10 min at the highest speed at 4 °C using a benchtop centrifuge. The supernatant was tested without dilution in thermal shift in vitro assays and the TS enzyme inhibition assay. The supernatants from samples without nucleoside were used as the treatment controls.

TS [2] = target: T1, TS; test: Thermal shift in vitro assay on recombinant protein; assay type: binding; design: His6 tag with TEV site (vector-encoded by pNIC28-Bsa4); made in house; host or cells: Rosetta BL21-DE3 Escherichia coli
Procedure: The assay was performed on the iCycler iQ Real Time PCR Detection System (Bio-Rad), using the 96-well thin-wall PCR plate (Bio-Rad). The experiment was conducted in a buffer containing 20 mM HEPES at pH 7.5 and 150 mM NaCl. A total volume of 25 μl solution containing 0.2 mg ml^−1 protein, compounds and × 5 Sypro Orange dye (Invitrogen) diluted from 5,000 × stock was dispensed into the 96-well plate. The same amount of DMSO was added in the control wells. The plates were sealed with Microseal B adhesive sealer (Bio-Rad) and heated in iCycler from 25 to 80 °C (56 heating cycles in 28 min). Fluorescent filter used for Sypro Orange measurements was λexcitation=492 nm and λemission=610 nm. The calculation of the midpoint of the curves (Tm) was performed using the software package XLfit from IDBS within microsoft excel.
as §1

TS in K562 cell lysates = target: T2, TS in K562 cell lysates (Homo sapiens, UniProt P04818); test: Western blot CETSA on K562 cell lysates; assay type: binding
T2 construct: screening in live, non-engineered cells expressing thymidylate synthase; endogenous in cells; host or cells: K562 (human myelogenous leukemia) cells
T2 sequence (P04818 2-313 limits assumed): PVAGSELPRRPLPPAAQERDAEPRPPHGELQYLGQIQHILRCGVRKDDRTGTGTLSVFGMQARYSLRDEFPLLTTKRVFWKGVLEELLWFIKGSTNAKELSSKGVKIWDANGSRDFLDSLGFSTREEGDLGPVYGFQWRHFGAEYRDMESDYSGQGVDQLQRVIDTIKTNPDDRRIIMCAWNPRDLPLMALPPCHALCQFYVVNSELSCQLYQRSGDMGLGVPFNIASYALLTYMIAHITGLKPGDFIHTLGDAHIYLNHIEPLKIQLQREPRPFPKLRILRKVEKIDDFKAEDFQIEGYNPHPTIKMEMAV
Procedure: For the cell lysate thermal shift experiments, cultured K562 cells were harvested and washed with Hank's Balanced Salt Solution. The cells were diluted in lysis buffer supplemented with complete protease inhibitor cocktail. The cell suspensions were freeze-thawed three times using liquid nitrogen and passed through a 27″ gauge needle five times. The soluble fraction (lysate) was separated from the cell debris by centrifugation at 20,000 × g for 20 min at 4 °C. For the thermal aggregation curve experiments cell lysates were diluted with lysis buffer supplemented with 200 μM dUMP and divided into two aliquots, with one aliquot being treated with ligand and the other aliquot with vehicle (control). […] The supernatants containing the remaining soluble proteins were transferred to new 0.2 ml microtubes and analyzed by sodium dodecyl sulfate polyacrylamide gel electrophoresis (SDS-PAGE) followed by western blot analysis.
NuPage Novex Bis-Tris 4–12% polyacrylamide gels with NuPAGE MES SDS running buffer (Life Technologies) were used for separation of proteins in the samples. […] Chemiluminescence intensities were detected and quantified using a ChemiDoc XRS+ imaging system (Bio-Rad) with Image Lab software (Bio-Rad).

T1 sequence (P04818 whole entry): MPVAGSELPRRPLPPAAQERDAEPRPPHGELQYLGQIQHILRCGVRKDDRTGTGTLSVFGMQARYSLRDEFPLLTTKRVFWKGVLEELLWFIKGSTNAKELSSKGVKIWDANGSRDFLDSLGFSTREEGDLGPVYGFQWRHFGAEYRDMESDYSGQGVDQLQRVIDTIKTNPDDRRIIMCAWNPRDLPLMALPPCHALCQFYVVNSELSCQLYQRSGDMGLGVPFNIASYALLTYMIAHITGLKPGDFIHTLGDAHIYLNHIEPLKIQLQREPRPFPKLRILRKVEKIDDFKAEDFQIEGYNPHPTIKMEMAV

Row | SMILES | inhibition at 10 µM (TS [1]; 10 μM compound, read-out: inhibition of TS enzymatic activity) | inhibition of TS enzymatic activity (TS [1]; 100 μM compound) | ΔTm at 25 µM (TS [2]; 25 μM compound, 500 μM dUMP, read-out: thermal shift of isolated recombinant human TS) | ΔTm at 100 µM (TS [2]; 100 μM compound, 500 μM dUMP, read-out: thermal shift of isolated recombinant human TS) | Tagg shift of TS in K562 cell lysates (TS in K562 cell lysates; 200 μM compound, lysate with 200 μM dUMP) | inhibition in TS enzymatic assay (TS [1]; decitabine sample after DCK treatment) | inhibition in TS enzymatic assay (TS [1]; decitabine sample after treatment with both DCK and DCTD) | stabilization of recombinant TS (TS [2]; 1 mM decitabine after treatment with recombinant DCK) | stabilization of recombinant TS in thermal shift assay (TS [2]; nucleoside without enzyme treatment) | ΔTm at 1000 µM (TS [2]; read-out: thermal shift of recombinant TS) | stabilization of TS in treated K562 lysates (TS in K562 cell lysates; 200 µM decitabine)
1 | Cc1cc(O)nc2sc(C(=O)c3ccccc3)c(N)c12 [CBK115334, 3-amino-2-benzoyl-4-methylthieno(2,3-b)pyridin-6-ol] | 60% | near complete inhibition | 2.6 °C | 5.2 °C | 3.7 °C | – | – | – | – | – | –
2 | Nc1ncn([C@H]2C[C@H](O)[C@@H](CO)O2)c(=O)n1 [decitabine, 5-Aza-deoxycytidine] | – | – | – | – | – | minor inhibition | near full inhibition | only a marginal stabilization | did not stabilize | ~10 °C | not stabilized

Reference: publication PMC4820820, “CETSA screening identifies known and novel thymidylate synthase inhibitors and slow intracellular activation of 5-fluorouracil” (Nature Communications, 2016)
